Results reported in the NIST ThermoML archive (doi:10.1021/je700350b).
± gives the expanded uncertainty stated by the source.

Test: xn = mol fraction of the nth substance listed
Details: for surface tension liquid-gas: Ring tensiometer; for binary diffusion coefficient: 101 kPa, Taylor dispersion method; for binary diffusion coefficient / viscosity: Liquid; for viscosity: 101.33 kPa

CCN(CC)CCO [(diethylamino)ethanol] + O
Details	binary diffusion coefficient [m2/s]	surface tension liquid-gas [mN/m]	viscosity [mPa·s]
283.15 K, x1 = 0.00104	–	62.91 ± 2	–
283.15 K, x1 = 0.00111	–	62.83 ± 2	–
283.15 K, x1 = 0.0013	–	62.32 ± 2	–
283.15 K, x1 = 0.00336	–	55.32 ± 1.8	–
283.15 K, x1 = 0.00503	–	54.03 ± 1.7	–
283.15 K, x1 = 0.00679	–	50.98 ± 1.6	–
283.15 K, x1 = 0.02372	–	43.65 ± 1.4	–
283.15 K, x1 = 0.03998	–	39.05 ± 1.2	–
283.15 K, x1 = 0.06011	–	37.17 ± 1.2	–
283.15 K, x1 = 0.07276	–	36.26 ± 1.1	–
283.15 K, x1 = 0.1253	–	34.78 ± 1.1	–
283.15 K, x1 = 0.1749	–	33.38 ± 1.1	–
283.15 K, x1 = 0.2503	–	32.74 ± 1	–
283.15 K, x1 = 0.3515	–	31.85 ± 1	–
283.15 K, x1 = 0.4018	–	31.32 ± 0.98	–
283.15 K, x1 = 0.5038	–	31.02 ± 0.97	–
283.15 K, x1 = 0.608	–	30.63 ± 0.96	–
283.15 K, x1 = 0.712	–	30.36 ± 0.95	–
283.15 K, x1 = 0.7503	–	30.08 ± 0.94	–
283.15 K, x1 = 0.8542	–	29.69 ± 0.93	–
283.15 K, x1 = 1	–	28.79 ± 0.9	–
288.15 K, x1 = 0.00104	–	62.06 ± 1.9	–
288.15 K, x1 = 0.00111	–	61.98 ± 1.9	–
288.15 K, x1 = 0.0013	–	61.47 ± 1.9	–
288.15 K, x1 = 0.00336	–	54.27 ± 1.7	–
288.15 K, x1 = 0.00503	–	53.11 ± 1.6	–
288.15 K, x1 = 0.00679	–	49.93 ± 1.6	–
288.15 K, x1 = 0.02372	–	42.61 ± 1.3	–
288.15 K, x1 = 0.03998	–	38.43 ± 1.2	–
288.15 K, x1 = 0.06011	–	36.56 ± 1.1	–
288.15 K, x1 = 0.07276	–	35.84 ± 1.1	–
288.15 K, x1 = 0.1253	–	34.38 ± 1.1	–
288.15 K, x1 = 0.1749	–	32.58 ± 1	–
288.15 K, x1 = 0.2503	–	32.22 ± 1	–
288.15 K, x1 = 0.3515	–	31.24 ± 0.98	–
288.15 K, x1 = 0.4018	–	30.72 ± 0.96	–
288.15 K, x1 = 0.5038	–	30.62 ± 0.96	–
288.15 K, x1 = 0.608	–	30.23 ± 0.95	–
288.15 K, x1 = 0.712	–	29.96 ± 0.94	–
288.15 K, x1 = 0.7503	–	29.69 ± 0.93	–
288.15 K, x1 = 0.8542	–	29.3 ± 0.92	–
288.15 K, x1 = 1	–	28.39 ± 0.89	–
293.15 K, x1 = 0.00104	–	61.43 ± 1.9	–
293.15 K, x1 = 0.00111	–	61.34 ± 1.9	–
293.15 K, x1 = 0.0013	–	60.62 ± 1.9	–
293.15 K, x1 = 0.00336	–	53.43 ± 1.6	–
293.15 K, x1 = 0.00503	–	52.35 ± 1.6	–
293.15 K, x1 = 0.00679	–	48.58 ± 1.5	–
293.15 K, x1 = 0.02372	–	41.89 ± 1.3	–
293.15 K, x1 = 0.03998	–	37.6 ± 1.2	–
293.15 K, x1 = 0.06011	–	36 ± 1.1	–
293.15 K, x1 = 0.07276	–	35.06 ± 1.1	–
293.15 K, x1 = 0.1253	–	33.88 ± 1.1	–
293.15 K, x1 = 0.1749	–	32.18 ± 1	–
293.15 K, x1 = 0.2503	–	31.82 ± 0.99	–
293.15 K, x1 = 0.3515	–	30.73 ± 0.96	–
293.15 K, x1 = 0.4018	–	30.23 ± 0.95	–
293.15 K, x1 = 0.5038	–	30.22 ± 0.95	–
293.15 K, x1 = 0.608	–	29.73 ± 0.93	–
293.15 K, x1 = 0.712	–	29.66 ± 0.93	–
293.15 K, x1 = 0.7503	–	29.29 ± 0.92	–
293.15 K, x1 = 0.8542	–	28.8 ± 0.9	–
293.15 K, x1 = 1	–	27.99 ± 0.88	–
298.15 K, x1 = 0.00104	–	60.8 ± 1.9	–
298.15 K, x1 = 0.00111	–	60.7 ± 1.9	–
298.15 K, x1 = 0.0013	–	59.88 ± 1.9	–
298.15 K, x1 = 0.00336	–	52.59 ± 1.6	–
298.15 K, x1 = 0.00427	6.17e-10	–	–
298.15 K, x1 = 0.00503	–	51.41 ± 1.6	–
298.15 K, x1 = 0.00679	–	47.43 ± 1.5	–
298.15 K, x1 = 0.01005	–	–	1.201 ± 0.019
298.15 K, x1 = 0.01425	4.95e-10	–	–
298.15 K, x1 = 0.02016	–	–	1.536 ± 0.024
298.15 K, x1 = 0.02372	–	40.85 ± 1.3	–
298.15 K, x1 = 0.03	–	–	1.949 ± 0.03
298.15 K, x1 = 0.03523	2.95e-10	–	–
298.15 K, x1 = 0.03998	–	36.88 ± 1.1	–
298.15 K, x1 = 0.04005	–	–	2.421 ± 0.037
298.15 K, x1 = 0.05087	2.23e-10	–	–
298.15 K, x1 = 0.05118	2.22e-10	–	–
298.15 K, x1 = 0.05946	–	–	3.473 ± 0.054
298.15 K, x1 = 0.06011	–	35.23 ± 1.1	–
298.15 K, x1 = 0.06152	–	–	3.51 ± 0.054
298.15 K, x1 = 0.07013	1.58e-10	–	–
298.15 K, x1 = 0.07026	–	–	4.128 ± 0.064
298.15 K, x1 = 0.07276	–	34.59 ± 1.1	–
298.15 K, x1 = 0.08762	–	–	5.181 ± 0.081
298.15 K, x1 = 0.09008	–	–	5.347 ± 0.084
298.15 K, x1 = 0.09711	1.32e-10	–	–
298.15 K, x1 = 0.1004	1.26e-10	–	–
298.15 K, x1 = 0.11	–	–	6.615 ± 0.1
298.15 K, x1 = 0.12	–	–	7.243 ± 0.11
298.15 K, x1 = 0.1253	–	33.18 ± 1	–
298.15 K, x1 = 0.1301	–	–	7.863 ± 0.12
298.15 K, x1 = 0.1401	–	–	8.511 ± 0.14
298.15 K, x1 = 0.1467	1.07e-10	–	–
298.15 K, x1 = 0.1749	–	31.58 ± 0.99	–
298.15 K, x1 = 0.2503	–	31.21 ± 0.98	–
298.15 K, x1 = 0.3515	–	30.22 ± 0.95	–
298.15 K, x1 = 0.4018	–	29.73 ± 0.93	–
298.15 K, x1 = 0.5038	–	29.72 ± 0.93	–
298.15 K, x1 = 0.608	–	29.23 ± 0.92	–
298.15 K, x1 = 0.712	–	29.15 ± 0.91	–
298.15 K, x1 = 0.7503	–	28.8 ± 0.9	–
298.15 K, x1 = 0.8542	–	28.41 ± 0.89	–
298.15 K, x1 = 1	–	27.6 ± 0.87	–
